PMC9569954, “The Antidepressant-like Activity, Effects on Recognition Memory Deficits, Bioavailability, and Safety after Chronic Administration of New Dual-Acting Small Compounds Targeting Neuropsychiatric Symptoms in Dementia” (International Journal of Molecular Sciences, 2022)

Legend:
[1] = test system: rats; experiment: Forced swim test (FST); assay type: in vivo, male Wistar rats; details: rat; for effect on immobility in FST / Immobility time: acute 1 mg/kg i.p.; for Immobility time: 60 min before test, 5 min session, vehicle 255.9 ± 8.6
Procedure: The rats were injected for 21 consecutive days at a dose of 1 mg/kg, similar to the dose used in acute treatment, as per data presented in Supplementary Materials (Table S1). The FST was conducted according to the method of Porsolt. On the first day of the experiment, the animals were gently placed individually for 15 min in Plexiglas cylinders (40 cm high, 18 cm in diameter) containing 15 cm of water maintained at 23–25 °C. On removal from water, the rats were placed for 30 min in a Plexiglas box under a 60 W bulb to dry. On the following day (24 h later), the rats were replaced in the cylinder and the total duration of immobility was recorded during the whole 5 min test period. Immobility was assigned when no additional activity was observed other than that necessary to keep the rat’s head above the water. Fresh water was used for each animal.
FST after acute administration of the investigated compounds
Rats were injected 60 min before the test at a dose of 1 mg/kg. FST was carried out according to the method of Porsolt, and the same procedure was used for chronic treatment.
Table S1. Effect of acute treatment of PQA-AZ4, PQA-AZ6, and PQ-10 on the immobility time in the […]
Compound (mg/kg) Immobility time (s)
Compounds were injected i.p. 60 min before the test. Values represent the means ± SEM of immobility in the FST during a 5 min test session. The data were analyzed using one -way ANOVA, followed by Bonferroni‘s post hoc test; NS = nonsignificant; N=7-8.

[2] = test system: Bdnf gene; experiment: Bdnf gene expression in brain structures (RT-qPCR, ex vivo); set-up: species or system rats; details: rat, 1 mg/kg/day i.p., 21 days; for Bdnf expression upregulation vs control, hippocampus: hippocampus (Hipp); for Bdnf expression upregulation vs control, prefrontal cortex: prefrontal cortex (PFX)
Procedure: Animals in all treatment groups were sacrificed by rapid decapitation immediately after the behavioral tests, when the brains and blood samples were collected. For quantitative reverse transcription-polymerase chain reaction (RT-qPCR), the brains of rats were rapidly removed, and the hippocampus and prefrontal cortex were dissected on an ice-cold glass plate. The tissues were frozen in dry ice and stored at −80 °C until required.
The total RNA was extracted from tissues using an RNA Isolation kit (Thermo Fisher Scientific, Rockford, IL, USA), and its concentration was normalized to 20 ng/μL. Reverse transcription was performed with a High-Capacity Reverse Transcription Kit (Life Technologies, Grand Island, NY, USA). A qPCR fast 96-well reaction plate was used for the process with TaqMan Gene Expression assay (Life Technologies) for brain-derived neurotrophic factor Bdnf (Rn02531967_s1) on an Applied Biosystems® 7500 Fast Real-Time PCR Instrument (Applied Biosystems, Foster City, CA, USA), according to the manufacturer’s protocol. Glyceraldehyde-3-phosphate dehydrogenase, Gapdh (Rn01775763_g1), was selected as endogenous control, based on the pilot experiment. Relative normalized expression was calculated using the ΔΔCq method.

[3] = test system: (+)-MK-801-induced memory deficits; experiment: Novel object recognition (NOR) test in (+)-MK-801 treated rats; assay type: in vivo, male Wistar rats; details: rat; for Total Exploratory Time in T2 Session: vehicle 49.67 ± 4.63; for effect on (+)-MK-801-induced recognition memory deficits (discrimination index): 21 days, (+)-MK-801 0.1 mg/kg i.p.
Procedure: The rats were injected with the respective compounds for 21 consecutive days at the minimum active doses selected previously, based on acute treatment and assessment in the NOR test. The protocol for the NOR test was adapted from the original work and the test was performed according to the previously described protocol, 24 h after the last injection of the investigated compound. The discrimination index (DI) was calculated according to the formula:(7) DI=(EB−EA)/(EA+EB) where EB is the exploration time of novel object during the T2 session and EA is the exploration time of […].
PQA-AZ4 and PQA-AZ-6 were administered for 60 and 30 min, respectively, before the T1 phase (the familiarization phase). MK-801 was used to attenuate learning and was administered at a dose of 0.1 mg/kg (i.p.) 30 min before the familiarization phase (T1). The total exploration time in T2 was used to determine the influence of the treatment on the exploratory activity of the animals.

[4] = Ferric-reducing antioxidant power (FRAP) of serum; assay type: in vivo, rats; details: rat, 1 mg/kg/day i.p., 21 days
Procedure: The assay was performed according to Benzie and Strain [46] with some modifications. The FRAP working solution was prepared before the start of the analysis, namely, 0.3 mol acetate buffer (pH 3.6), 0.01 mol TPTZ (2,4,6-tripyridyl-s-triazine; Sigma-Aldrich) in 0.04 mol HCl (POCh, Gliwice, Poland), and 0.02 M FeCl3×6H2O in water (iron (III) chloride hexahydrate; Chempur, Piekary Śląskie, Poland) were mixed in a volumetric ratio of 10:1:1 and protected from light.
Next, 20 µL of the plasma sample tested, brain homogenate, or FeSO4×7H2O solution was mixed with 180 µL of the FRAP working solution. The mixtures obtained were incubated at 37 °C for 30 min and their absorbance was measured at 593 nm. FeSO4×7H2O (100–1000 µM/L) was used for a calibration curve. Deionized water with FRAP solution was used as a blank.

[5] = MTT cytotoxicity on normal human dermal fibroblast cells; assay type: cell-based; details: NHDF cells (normal human dermal fibroblasts), highest tested concentration (75 μM), read-out: cell viability
Source text: Alpha-MEM and the normal human dermal fibroblast cell line (NHDF) were obtained from Lonza (Lonza, Warsaw, Poland). Phosphate-buffered saline (PBS), fetal bovine serum (FBS), L-glutamine, and 100× antibiotic–antimycotic were from Cytogene (Zgierz, Poland). MTT (3-(4,5-dimethylthiazol-2-yl)-2,5-diphenyltetrazolium bromide) was from Sigma-Aldrich (Poznan, Poland) and DMSO was purchased from Archem (Kamieniec Wroclawski, Poland).
The viability of NHDF cells after treatment with PQA-AZ4 and PQA-AZ-6 was assayed using the previously described methodology. Briefly, 4.5 × 10^3 cells/well were seeded into a 96-multiwell plate and viability was evaluated using the MTT assay. Different volumes of each compound dissolved in DMSO (final concentrations 4.68, 9.37, 18.75, 37.5, and 75 μM, respectively), as well as DMSO itself as solvent control, were added to each well, mixed, and incubated for 48 h. Finally, the optical density was measured at 560 nm with a reference wavelength of 670 nm using an Asys UVM 340 Microplate Reader (Cambridge, UK). Results were expressed as the percentage of survival cells concerning the control (not treated cells).

[6] = test system: PDE10A; set-up: method as in PMID 35248836; details: read-out: Inhibition PDE10A IC50; cited from earlier work
[7] = test system: 5-HT1AR; set-up: method as in PMID 35248836; details: cited from earlier work
[8] = chronic 1 mg/kg/day i.p., 21 days

Row | total antioxidant activity of serum (Fe2+ formed, FRAP) vs control [4] | Structure (SMILES) | effect on immobility in FST [1] | Immobility time [1] [s] | antidepressant-like activity in FST [1, 8] | Bdnf expression upregulation vs control, hippocampus [2] | Bdnf expression upregulation vs control, prefrontal cortex [2] | Total Exploratory Time in T2 Session ([3]; 1 mg/kg/day i.p. 21 days + (+)-MK-801 0.1 mg/kg) | effect on (+)-MK-801-induced recognition memory deficits (discrimination index) ([3]; 1 mg/kg/day i.p.) | viability at 48 h, 75 µM [5] [%] | IC50 [6] [µM] | Functional profile at 5-HT1AR [7] | decrease of immobility vs. control group in FST [1, 8] | Total Exploratory Time in T2 Session ([3]; 3 mg/kg/day i.p. 21 days + (+)-MK-801 0.1 mg/kg) | effect on (+)-MK-801-induced recognition memory deficits (discrimination index) ([3]; 3 mg/kg/day i.p.)
1 | comparable | COc1cccc(N2CCN(CC3CCN(c4ncnc5cc(OC)c(OC)cc45)C3)CC2)c1 (centres unmarked) [PQA-AZ4, 6,7-Dimethoxy-4-(3-((4-(3-methoxyphenyl)piperazin-1-yl)methyl)pyrrolidin-1-yl)quinazoline] | did not change the immobility | 244.8 ± 8.9 | inactive | about 2.8 fold | about 10 fold | 28.83 ± 2.50 p < 0.01 vs. veh; p < 0.05 vs. (+)-MK-801 F(2,16) = 7.3773; p < 0.01 | restored recognition memory deficits | 19.9 | 7.07 | partial agonists | – | – | –
2 | comparable | COc1cc2ncnc(N3CCC(CN4CCN(c5ccc(Cl)cc5)CC4)C3)c2cc1OC (centres unmarked) [PQA-AZ6, 4-(3-((4-(4-Chlorophenyl)piperazin-1-yl)methyl)pyrrolidin-1-yl)-6,7-dimethoxyquinazoline] | did not change the immobility | 255.4 ± 7.0 | showed antidepressant-like properties | about 33 fold | ~12 fold | – | – | 84 | 5.68 | partial agonists | about 11% | 39.57 ± 4.39 F(2,17) = 1.3060; NS s | restored recognition memory deficits
